Measurements reported in patent US10562910B2, “Nitrogen-containing tricyclic compounds and uses thereof in medicine” (SUNSHINE LAKE PHARMA CO., LTD., priority 2016, dated 2020).

How the values were obtained:
[1] = target: FXR ligand binding domain (LBD) (Homo sapiens (Human), UniProt Q96RI1); test: Mammalian one hybrid (M1H) GAL4 reporter gene assay in HEK293 cells; type: cell-based; conditions: GAL4 reporter gene test
Excerpt: Mammalian one hybrid technology is also called chimeric receptor gene assay. Based on the GAL4 chimera receptor assay, the activity of compounds which mediated activation of FXR was detected by dual luciferase reporter assay. The methods were as follows: cDNA encoding the FXR ligand binding domain (LBD), the yeast GAL4 DNA binding domain (DBD) and the Renilla luciferase DNA were fused to construct a chimera expression plasmid pBIND-FXR (Promega). […] The plasmid pG5Luc (Promega) was used as the reporter plasmid, containing the GAL4 upstream activation sequence (UAS) and the Firefly luciferase receptor gene. All GAL4 reporter gene assays were done in HEK293 cells. Cells were cultured at 37° C., 5% CO2 under humidified conditions. […] The contents were mixed completely and incubated the mixtures for 15 minutes at room temperature. The volume of the transfection mixture was 2.5 μl/well. Trypsinized and diluted the cell slurry at a density of […] (100 μl/well for 96-well plate). Then added required volume of transfection mixture prepared previously into the cell slurry, and dispensed 100 μl/well of the cell slurry into the 96-well plate and incubated the plate for 24 hours at 37° C., 5% CO2 under humidified conditions. Compounds prediluted in complete medium were added into each well and then incubated at 37° C., 5% CO2 under humidified conditions for 18 hours. The firefly and renilla luciferase signal was assayed by Promega's Dual Luciferase Reporter Assay System.
The % Activation value was calculated by the following equation: Activation %=[(X−Min)/(Max−Min)]×100%. “X” is the “F/R” value from compounds. “F/R” means “Firefly/Renilla”. “Min” is the mean “F/R” value from no compound control. “Max” is the mean “F/R” value from reference compound control. Finally, the EC50 value of each compounds were calculated by GraphPrism 5.0.

[2] = Pharmacokinetics test in SD rats; type: in vivo; conditions: rat, plasma, male SD rats
Protocol: Example 22 Pharmacokinetics Test
Experimental animals: six healthy adult male SD rats (purchased from Hunan SJA Laboratory Animal Co. Ltd.) were divided into two groups, three rats in each group, and the two groups were given intravenous injection and oral administration respectively.
Drug preparation: a quantity of a compound of the present invention was weighed, and 5% DMSO, 10% Kolliphor HS15 and 85% saline (0.9%) were added to give target concentrations of the compound solution.
Administration and sample collection: animals were fasted for 12 h before administration, and fed at the time point of 3 hours after the administration. SD rats of one group were given intravenous injection (IV, 1 mg/kg) via hind legs and SD rats of the other group were given oral administration (PO, 5 mg/kg) respectively. Then blood was collected in the rat tail vein at the time point of 0, 0.083, 0.25, 0.5, 1, 2, 4, 6, 8, 24 h respectively, and the blood volume was about 200-400 μL/time point. After the collection of whole blood at each time point, the collected blood was set in K2EDTA anticoagulant tube, and the tube was placed in the incubator with ice packs. All samples were centrifuged for 5 min at 4° C. at 4600 r/min within 15 min. Plasma was separated and collected. The concentrations of different compounds in the plasma of the rats after administration were measured using LC/MS/MS method, and the pharmacokinetic parameters were calculated according to the curve of the drug concentration-time.

Chain of FXR ligand binding domain (LBD) (Q96RI1 261-481): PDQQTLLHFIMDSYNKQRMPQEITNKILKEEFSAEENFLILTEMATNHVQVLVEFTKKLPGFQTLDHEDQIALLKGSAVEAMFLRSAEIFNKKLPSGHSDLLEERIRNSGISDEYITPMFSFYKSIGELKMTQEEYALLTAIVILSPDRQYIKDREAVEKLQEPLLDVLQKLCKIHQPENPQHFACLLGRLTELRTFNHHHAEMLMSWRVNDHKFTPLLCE

O=C(O)c1ccc2c(c1)Oc1ccc(OCc3c(-c4c(Cl)cccc4Cl)noc3C3CC3)nc1C(C(F)(F)F)=C2 [Example 7, 2-((5-cyclopropyl-3-(2,6-dichlorophenyl)isoxazol-4-yl)methoxy)-11-(trifluoromethyl)benzo[6,7]oxepino[3,2-b]pyridine-7-carboxylic acid]
EC50 [1]: 11 nM

O=C(O)c1ccc2c(c1)Oc1ccc(OCc3c(-c4c(Cl)cccc4Cl)noc3C3CC3)nc1C(F)=C2 [Example 5, 2-((5-cyclopropyl-3-(2,6-dichlorophenyl)isoxazol-4-yl)methoxy)-11-fluorobenzo[6,7]oxepino[3,2-b]pyridine-7-carboxylic acid]
AUC(0-inf) ([2]; iv 1 mg/kg): 1580 ng·h/mL | AUC(0-t) ([2]; iv 1 mg/kg): 1580 ng·h/mL | Cmax ([2]; iv 1 mg/kg): 3040 ng/mL | MRT inf ([2]; iv 1 mg/kg): 32.9 min | Tmax ([2]; iv 1 mg/kg): 4.98 min | clearance ([2]; iv 1 mg/kg): 10.6 mL/min/kg | half-life ([2]; iv 1 mg/kg): 40.9 min | Vd ([2]; iv 1 mg/kg, read-out: Vss): 0.344 L/kg | AUC(0-inf) ([2]; po 5 mg/kg): 7480 ng·h/mL | AUC(0-t) ([2]; po 5 mg/kg): 7450 ng·h/mL | Cmax ([2]; po 5 mg/kg): 6430 ng/mL | MRT inf ([2]; po 5 mg/kg): 64.2 min | Tmax ([2]; po 5 mg/kg): 30 min | half-life ([2]; po 5 mg/kg): 50.3 min | bioavailability ([2]; po 5 mg/kg vs iv 1 mg/kg): 95%

O=C(O)c1ccc2c(c1)Oc1ccc(OCc3c(-c4c(Cl)cccc4Cl)noc3C3CC3)nc1C(F)(F)C2O (centres unmarked) [Example 12, 2-((5-cyclopropyl-3-(2,6-dichlorophenyl)isoxazol-4-yl)methoxy)-11,11-difluoro-10-hydroxy-10,11-dihydrobenzo[6,7]oxepino[3,2-b]pyridine-7-carboxylic acid]
EC50 [1]: 136 nM

CC1=Cc2nc(OCc3c(-c4c(Cl)cccc4Cl)noc3C3CC3)ccc2Oc2cc(C(=O)O)ccc21 [Example 18, 2-((5-cyclopropyl-3-(2,6-dichlorophenyl)isoxazol-4-yl)methoxy)-10-methylbenzo[6,7]oxepino[3,2-b]pyridine-7-carboxylic acid]
EC50 [1]: 93 nM

O=C(O)c1ccc2c(c1)Oc1ccc(OCc3c(-c4c(Cl)cccc4Cl)noc3C3CC3)nc1C(C1CC1)C2 (centres unmarked) [Example 17, 11-cyclopropyl-2-((5-cyclopropyl-3-(2,6-dichlorophenyl)isoxazol-4-yl)methoxy)-10,11-dihydrobenzo[6,7]oxepino[3,2-b]pyridine-7-carboxylic acid]
EC50 [1]: 65 nM

O=C(O)c1ccc2c(c1)Oc1ccc(OCc3c(-c4c(Cl)cccc4Cl)noc3C3CC3)nc1C(C(F)(F)F)C2 (centres unmarked) [Example 8, 2-((5-cyclopropyl-3-(2,6-dichlorophenyl)isoxazol-4-yl)methoxy)-11-(trifluoromethyl)-10,11-dihydrobenzo[6,7]oxepino[3,2-b]pyridine-7-carboxylic acid]
EC50 [1]: 26 nM

CC1=Cc2ccc(C(=O)O)cc2Oc2ccc(OCc3c(C4CC4)cnn3-c3c(Cl)cccc3Cl)nc21 [Example 15, 2-((4-cyclopropyl-1-(2,6-dichlorophenyl)-1H-pyrazol-5-yl)methoxy)-11-methylbenzo[6,7]oxepino[3,2-b]pyridine-7-carboxylic acid]
EC50 [1]: 13 nM

O=C(O)c1ccc2c(c1)Oc1ccc(OCc3c(-c4c(Cl)cccc4Cl)noc3C3CC3)nc1C(C1CC1)=C2 [Example 16, 11-cyclopropyl-2-((5-cyclopropyl-3-(2,6-dichlorophenyl)isoxazol-4-yl)methoxy)benzo[6,7]oxepino[3,2-b]pyridine-7-carboxylic acid]
EC50 [1]: 5 nM

O=C(O)c1ccc2c(c1)Oc1ccc(OCc3c(-c4c(Cl)cccc4Cl)noc3C3CC3)nc1C1(CC1)C2 [Example 9, 2-((5-cyclopropyl-3-(2,6-dichlorophenyl)isoxazol-4-yl)methoxy)-10H-spiro[benzo[6,7]oxepino[3,2-b]pyridine-11,1′-cyclopropane]-7-carboxylic acid]
EC50 [1]: 2 nM
